Experimental data reported in patent US5670538A, “Use of prodelphinidins for obtaining medicaments intended for the treatment of arthrosis” (Laboratoires Dolisos, priority 1992, dated 1997).
Like-named read-outs stand apart in the source and are kept apart here.

Tests used:
[1] = test system: human articular chondrocytes; test: Radioimmunoassay of cartilaginous proteoglycans (PG) produced in tridimensional culture of human chondrocytes; assay type: cell-based; conditions: for PG in the clusters over 12 days: 0-12 days
Text: The model used for testing the proanthocyanidols, namely the tridimensional culture of human chondrocytes allows chondrorepair to be quantified by the production of matrix substances: type II collagen, proteoglycans, and chondroresorption by the reduction in the levels of prostaglandin E2 and of OH° and O°2 type free radicals produced.
1. Tridimensional culture of human chondrocytes
The technique used has been described in detail (Bassleer et al., 1986).
Briefly, human articular chondrocytes are cultivated in DMEM (Dulbecco's Modification of Eagle's Medium--ICN--Gand, Belgium) with either Ultroser G 1% (GIBCO, Gand, Belgium) or 10% of foetal calf serum (ICN--Gand--Belgium), and 50 μg of ascorbic acid/ml added to it. The cartilage originates from the apparently normal zone of heads of human femur suffering from arthrosis, immediately after an operation carried out to insert a total hip prosthesis; it can also originate from the head of a healthy femur, but which has undergone a traumatism and has had to be replaced. This cartilage is then digested by clostridial collagenase 1 mg/ml (Boehringer-Mannheim, Germany) in a buffer (NaCl 120 mM, CaCl2 1 mM, KCl 5 mM, KH2 PO4 1 mM, NaHCO3 25 mM, glucose 2 mM and Hepes 30 mM, pH 7.4) for 24 hours. After 6 successive washings and centrifugations, the chondrocytes, isolated from their matrix, are cultured in flasks (10^6 cells/2 ml of culture medium) placed on a gyrator (10 rpm). The cultures are kept at 37° C. in an atmosphere of air 95%-CO2 5% (Bassleer et al., 1986). Cultivated under these conditions, after 4 to 5 days the chondrocytes form a tridimensional cluster in each flask. These clusters, which at first have a flocculent appearance, then tend to condense during the culture. After two weeks, their diameter is, in general, from 1 to 2 mm.
The fresh weight of the clusters increases with the duration of the culture, above all during the few first days.
2. Radioimmunoassay of cartilaginous proteoglycans (PG)
The PGs are measured with a radioimmunoassay (RIA) which is specific and sensitive to human cartilaginous PGs (Gysen et al. 1984). The PGs were extracted from human cartilage, according to the methods described by Roughley et al., (1981) and by Bayliss and Venn (1980). The antiserum against the cartilaginous PGs was obtained from the rabbit according to the technique of Vaitukaitis et al. (1971). The radioimmunoassay is carried out in a 0.4 ml volume consisting of 0.1 ml of tracer solution (15000 to 20000 cpm ^125 I-PG, labelled by the chloramine T method (Greenwood, 1973). 0.1 ml of anti-PG antiserum diluted to 1/5000 in phosphate-buffered saline (PBS-50 mM PO4, 150 mM NaCl ), containing BSA (5 g/l bovine serum albumin and 6.7 mM sodium azide) (incubation buffer) and 0.2 ml of several dilutions of the culture medium or of the cluster extract or also of the antigen (0.5 -500 ng/tube).
After four days at 4° C., the free PGs* (radioactive PGs) are separated from the PG*-antibody complexes by double precipitation (Franchimont et al., 1983).
The sensitivity of the assay is 0.6 ng/tube. The accuracy of measurement is of the order of 4%. The coefficients of the intra- and inter assay variation are less than 10% and 20% respectively.
The antibodies are directed against the antigenic determinants of the central protein of PG. There is a complete crossed reaction with human PGs of cartilage from the ribs, vertebral disks and trachea, even with PGs extracted from veins or arteries. There is no cross reaction with glycosaminoglycans or with PGs extracted from foetal tissues or the small PGs from bone.
The PGs are measured directly in the culture medium. As for the chondrocyte clusters, they are washed 3 times in a phosphate-buffered saline (PBS-50 mM PO4, 150 mM NaCl pH 7.4) containing protease inhibitors (Oegema et al., 1975:100 mM 6-aminohexanoic acid, 10 mM EDTA, 50 mM benzamidine hydrochloride, 5.10^-8 M trypsin inhibitor, 6.7 mM sodium azide and 200 U/ml superoxide dismutase). […]

[2] = test system: polymorphonuclear cells (PMNs); test: Production of the superoxide anion by the polymorphonuclear cells (PMNs), reduction of ferricytochrome C; assay type: cell-based; conditions: 0.032 mM; phorbol myristate acetate; no conclusion possible on superoxide inhibition
Protocol: 10. Production of the superoxide anion (O°^2) by the polymorphonuclear cells (PMNs).
This is measured with a double beam spectrophotometer which allows the reduction of ferricytochrome C by O°2 tc be monitored. The incubation medium (2.5 ml) is constituted by PBS buffer containing glucose (7.5 mM), ferricytochrome C (0.956 mM), CaCl2 (2.3 mM), MgCl2 (1.1 mM), 7.5.10^6 of cells and the substance to be tested at a concentration of 0.032 mM. The reaction is triggered by adding phorbol myristate acetate at a final concentration of 0.012 mM and the reduction of the cytochrome C is monitored at 550 nm for 10 minutes. The reference cell contains the same material as that described above with an additional 48 μg of superoxide dismutase (SOD)/ml of medium.

## Oc1cc(O)c2c(c1)O[C@H](c1cc(O)c(O)c(O)c1)[C@@H](O)[C@@H]2c1c(O)cc(O)c2c1O[C@H](c1cc(O)c(O)c(O)c1)[C@H](O)C2 [Substance Ia, GC-(4 alpha→8) EGC]
[1]; 1% Ultroser G, 1 μg/ml
  PG in the clusters over 12 days: 912 ± 83.6 ng/μg DNA
[1]; 1% Ultroser G, 10 μg/ml
  PG in the clusters over 12 days: 1411 ± 153 ng/μg DNA
[1]; 1% Ultroser G, 100 μg/ml
  PG in the clusters over 12 days: 2105 ± 42 ng/μg DNA
[1]; 1% Ultroser G, culture time 0-4 days, 1 μg/ml
  PGs released in the culture medium: 14.2 ± 1.6 μg/μg DNA/96 h
[1]; 1% Ultroser G, culture time 0-4 days, 10 μg/ml
  PGs released in the culture medium: 22.4 ± 0.2 μg/μg DNA/96 h
[1]; 1% Ultroser G, culture time 0-4 days, 100 μg/ml
  PGs released in the culture medium: 28.6 ± 2.85 μg/μg DNA/96 h
[1]; 1% Ultroser G, culture time 4-8 days, 1 μg/ml
  PGs released in the culture medium: 1.74 ± 0.18 μg/μg DNA/96 h
[1]; 1% Ultroser G, culture time 4-8 days, 10 μg/ml
  PGs released in the culture medium: 3.26 ± 0.12 μg/μg DNA/96 h
[1]; 1% Ultroser G, culture time 4-8 days, 100 μg/ml
  PGs released in the culture medium: 3.94 ± 0.1 μg/μg DNA/96 h
[1]; 1% Ultroser G, culture time 8-12 days, 1 μg/ml
  PGs released in the culture medium: 0.44 ± 0.04 μg/μg DNA/96 h
[1]; 1% Ultroser G, culture time 8-12 days, 10 μg/ml
  PGs released in the culture medium: 0.74 ± 0.18 μg/μg DNA/96 h
[1]; 1% Ultroser G, culture time 8-12 days, 100 μg/ml
  PGs released in the culture medium: 0.78 ± 0.02 μg/μg DNA/96 h
[1]; 1% Ultroser G, cumulative, 1 μg/ml
  Proteoglycans released during the 12 days of culture, Abs: 16.4 μg/μg DNA/12 days
[1]; 1% Ultroser G, cumulative, 10 μg/ml
  Proteoglycans released during the 12 days of culture, Abs: 26.4 μg/μg DNA/12 days
[1]; 1% Ultroser G, cumulative, 100 μg/ml
  Proteoglycans released during the 12 days of culture, Abs: 33.3 μg/μg DNA/12 days
[1]; 1% Ultroser G, three concentrations studied
  Concentrations of PG in the clusters, effect in words: significantly stimulated and in a dose-dependent way
[1]; Homo sapiens, Chondrocyte, 288 h, 1% Ultroser G, cumulative, 1 μg/ml, control = 100, read-out: Proteoglycans released during the 12 days of culture, %
  activity at 1 µg/mL: 103%
[1]; Homo sapiens, Chondrocyte, 288 h, 1% Ultroser G, cumulative, 10 μg/ml, control = 100, read-out: Proteoglycans released during the 12 days of culture, %
  activity at 10 µg/mL: 165%
[1]; Homo sapiens, Chondrocyte, 288 h, 1% Ultroser G, cumulative, 100 μg/ml, control = 100, read-out: Proteoglycans released during the 12 days of culture, %
  activity at 100 µg/mL: 208%
[1]; Homo sapiens, Chondrocyte, foetal calf serum, Table 14, 0-4 days, 10 μg/ml, control = 100%, read-out: PG in the culture medium, % of control
  activity at 10 µg/mL: 118%
[1]; Homo sapiens, Chondrocyte, foetal calf serum, Table 14, 0-4 days, 100 μg/ml, control = 100%, read-out: PG in the culture medium, % of control
  activity at 100 µg/mL: 147%
[1]; Homo sapiens, Chondrocyte, foetal calf serum, Table 14, 4-8 days, 10 μg/ml, control = 100%, read-out: PG in the culture medium, % of control
  activity at 10 µg/mL: 119%
[1]; Homo sapiens, Chondrocyte, foetal calf serum, Table 14, 4-8 days, 100 μg/ml, control = 100%, read-out: PG in the culture medium, % of control
  activity at 100 µg/mL: 135%
[1]; Homo sapiens, Chondrocyte, foetal calf serum, Table 15, 0-4 days, 10 μg/ml, control = 100%, read-out: PG in the culture medium, % of control
  activity at 10 µg/mL: 131%
[1]; Homo sapiens, Chondrocyte, foetal calf serum, Table 15, 0-4 days, 100 μg/ml, control = 100%, read-out: PG in the culture medium, % of control
  activity at 100 µg/mL: 166%
[1]; Homo sapiens, Chondrocyte, foetal calf serum, Table 15, 4-8 days, 10 μg/ml, control = 100%, read-out: PG in the culture medium, % of control
  activity at 10 µg/mL: 123%
[1]; Homo sapiens, Chondrocyte, foetal calf serum, Table 15, 4-8 days, 100 μg/ml, control = 100%, read-out: PG in the culture medium, % of control
  activity at 100 µg/mL: 138%
[1]; Homo sapiens, Chondrocyte, foetal calf serum, Table 16, 0-8 days, 10 μg/ml, control = 100%, read-out: PG in the clusters over 8 days, % of control
  activity at 10 µg/mL: 128%
[1]; Homo sapiens, Chondrocyte, foetal calf serum, Table 16, 0-8 days, 100 μg/ml, control = 100%, read-out: PG in the clusters over 8 days, % of control
  activity at 100 µg/mL: 158%
[1]; Homo sapiens, Chondrocyte, foetal calf serum, Table 17, 0-8 days, 10 μg/ml, control = 100%, read-out: PG in the clusters over 8 days, % of control
  activity at 10 µg/mL: 120%
[1]; Homo sapiens, Chondrocyte, foetal calf serum, Table 17, 0-8 days, 100 μg/ml, control = 100%, read-out: PG in the clusters over 8 days, % of control
  activity at 100 µg/mL: 144%
[1]; foetal calf serum, 10 and 100 μg/ml
  PGs in the clusters, effect in words: significantly increased
[1]; foetal calf serum, Table 14, 0-4 days, 10 μg/ml
  PG in the culture medium: 7.7 ± 0.49 μg/μg DNA - 96 H
[1]; foetal calf serum, Table 14, 0-4 days, 100 μg/ml
  PG in the culture medium: 9.5 ± 1.34 μg/μg DNA - 96 H
[1]; foetal calf serum, Table 14, 4-8 days, 10 μg/ml
  PG in the culture medium: 2.37 ± 0.17 μg/μg DNA - 96 H
[1]; foetal calf serum, Table 14, 4-8 days, 100 μg/ml
  PG in the culture medium: 2.69 ± 0.15 μg/μg DNA - 96 H
[1]; foetal calf serum, Table 15, 0-4 days, 10 μg/ml
  PG in the culture medium: 6.9 ± 0.99 μg/μg DNA - 96 H
[1]; foetal calf serum, Table 15, 0-4 days, 100 μg/ml
  PG in the culture medium: 8.8 ± 1.49 μg/μg DNA - 96 H
[1]; foetal calf serum, Table 15, 4-8 days, 10 μg/ml
  PG in the culture medium: 2.1 ± 0.21 μg/μg DNA - 96 H
[1]; foetal calf serum, Table 15, 4-8 days, 100 μg/ml
  PG in the culture medium: 2.4 ± 0.09 μg/μg DNA - 96 H
[1]; foetal calf serum, Table 16, 0-8 days, 10 μg/ml
  PG in the clusters over 8 days: 1004 ± 56 ng/μg DNA
[1]; foetal calf serum, Table 16, 0-8 days, 100 μg/ml
  PG in the clusters over 8 days: 1242 ± 208 ng/μg DNA
[1]; foetal calf serum, Table 17, 0-8 days, 10 μg/ml
  PG in the clusters over 8 days: 688.8 ± 40.65 ng/μg DNA
[1]; foetal calf serum, Table 17, 0-8 days, 100 μg/ml
  PG in the clusters over 8 days: 829.4 ± 9.37 ng/μg DNA
[2]
  Reduction of ferricytochrome C by PMNs: strongly reduced
